In patent US6326401A, “Formulation for the oromucosal, in particular pernasal, route” (Immunotech, priority 1998, dated 2001):
Like-named read-outs stand apart in the source and are kept apart here.

Columns and labels:
[1] = Dose/effect and reproducibility of bioavailability, nasal 4 mg and 7 mg (Example 6); format: in vivo, human subjects; conditions: with Labrasol
Description: The black squares represent the dose of 4 mg and the white squares represent the dose of 7 mg.

[2] = Compared bioavailability of sublingual formulations without and with Labrasol (Example 7); format: in vivo, healthy volunteer subjects; conditions: 10 mg, sublingual tablet; for AUC at 6 h / Tmax: human, serum; for AUC at 6 h: observation period 6 hours; for Tmax: read-out: apparent Tmax (converted)
Description: The serum concentrations of IS 159 as a function of time were measured on healthy volunteer subjects. These subjects received an identical amount of active substance IS 159 (10 mg) in the form of tablets in the absence or presence of Labrasol® (2%) by sublingual administration.

[3] = Compared bioavailability of aqueous nasal solution/aqueous subcutaneous solution (Example 9); format: in vivo, healthy volunteer subjects; conditions: 4 mg; for Tmax / half-life: human, serum; for half-life: read-out: Terminal half-life (converted)
Description: (§1) The serum concentrations of IS 159 as a function of time were measured on healthy volunteer subjects.

[4] = Reproducibility of bioavailability of the aqueous nasal solution plus Labrasol (Example 5); format: in vivo, human subjects; conditions: 100 μl (4 mg), with Labrasol, 8 subjects
[5] = Bioavailability test: serum IS 159 after nasal administration of the solution and control solution of example 1 (Example 4); format: in vivo, man; conditions: for AUC at 4 h / Tmax: human, serum; for AUC at 4 h: observation period 4 hours; for Tmax: read-out: apparent Tmax (converted)
[6] = Comparison between aqueous nasal solution and sublingual formulation (Example 8); format: in vivo, healthy volunteer subjects; conditions: human, serum, 10 mg; for AUC(0-inf): read-out: AUC from time 0 to infinity
Description: as §1

[7] = control solution without Labrasol

## NCCc1c[nH]c2ccc(OCC(=O)NC(Cc3ccc(O)cc3)C(=O)NCC(N)=O)cc12 (centres unmarked) [IS 159, tryptamine 5-O-carboxymethyl-tyrosyl-glycinamide]
[1]
  intra-individual and interindividual reproducibility of the pharmacokinetic parameters: good
  ratios of the AUCs and the maximum concentrations: constant and high
[2]; control (2% lactose)
  AUC at 6 h: 0.42 ng·h/mL
[2]; control without Labrasol
  Tmax: 45 min
[2]; with 2% Labrasol
  AUC at 6 h: 9.72 ng·h/mL
  Tmax: 35 min
[2]; with 2% Labrasol vs control
  absorption (Cmax): increases the absorption (Cmax)
[3]; sc, mean s.c.
  Tmax: 30 min
  half-life: 150 min
[3]; mean nasal, with Labrasol
  Tmax: 15 min
  half-life: 150 min
  AUC/dose: 14 (h.ng/ml)(mg dose IS 159)
  Cmax/dose: 11 ng/mL
[3]; mean s.c.
  AUC/dose: 36 (h.ng/ml)(mg dose IS 159)
  Cmax/dose: 20 ng/mL
[3]; nasal (with Labrasol) / s.c.
  AUC/dose, ratio Nasal/s.c.: 39%
  Cmax/dose, ratio Nasal/s.c.: 55%
[3]; nasal (with Labrasol) vs s.c.
  Tmax, Nasal/s.c.: reduced
[3]; nasal solution with Labrasol, compared with subcutaneous
  bioavailability: significant and faster than by the subcutaneous route
[3]; nasal vs subcutaneous
  terminal half-life, change: not changed significantly
[4]
  interindividual and intraindividual reproducibilities of the pharmacokinetic parameters: good
[5]; [7]
  AUC at 4 h: 12 ng·h/mL
  Tmax: 30 min
[5]; with Labrasol
  AUC at 4 h: 85 ng·h/mL
  Tmax: 10 to 15 min
[5]; with Labrasol vs control solution
  absorption (Cmax): increases the absorption (Cmax)
[6]; nasal solution with Labrasol
  AUC(0-inf): 166 ng·h/mL
[6]; sublingual tablet with 2% Labrasol
  AUC(0-inf): 12 ng·h/mL
[6]; nasal and sublingual with Labrasol, read-out: terminal half-life (converted)
  half-life: ~150 min
